{"source": "patent US20260048072A1", "about": "“PHARMACEUTICAL PREPARATION FOR INTRANASAL ADMINISTRATION AND PREPARATION METHOD THEREFOR” (CHENGDU EASTON BIOPHARMACEUTICALS CO., LTD., priority 2023, published 2026)", "type_in_all_cases": "in vivo", "details_in_all_cases": "beagle dogs, nasal spray, result in words", "key": {"[1]": {"assay": "Experimental Example 3: pharmacokinetic experiment, nalmefene in plasma by LC-MS/MS", "method": "Beagle dogs (body weight of 8 kg-10 kg, supplier: Chengdu Dossy Experimental Animal Co., Ltd., license number: SCXK(1)2019-031)\n(§1) • EDTA-K2 anticoagulant tube: brand Kangweishi (KWS) • Liquid chromatograph (Shimadzu, LC-30AD), mass spectrometer (SCIEX Triple Quad 4500) • LC-MS/MS detection conditions: • Instrument: UPLC-MS/MS (AB API 4500) • MS conditions: Electrospray ionization (ESI) source, positive ion detection\n(§2) HPLC conditions: mobile phase A: 90% water+10% acetonitrile+0.1% formic acid+2 mM ammonium acetate; mobile phase B: 90% acetonitrile+10% water+0.1% formic acid+2 mM ammonium acetate; chromatographic column: Waters ACQUITY UPLC BEH C18 (2.1×50 mm, 1.7 μm); flow rate: 0.50 mL/min; chromatographic column temperature: 40° C.\n(§3) Experimental method of nasal administration for Example 3: Four beagle dogs were administered with 1 dose of a nasal spray preparation of nalmefene hydrochloride by nasal spray respectively, and 2 mL of blood was collected from the forelimb vein before administration and at 2 min, 5 min, 10 min, 15 min, 30 min, 45 min, 1 h, 2 h, 4 h and 6 h after administration. The blood sample was placed in an EDTA-K2 anticoagulant tube, centrifuged at 4500 r/min for 10 min, and 50 μL of plasma was separated into a centrifuge tube. […] The content of nalmefene in the plasma was detected by LC-MS/MS. […]"}, "[2]": {"assay": "Experimental Example 4: pharmacokinetic experiment, nalmefene in plasma by LC-MS/MS", "excerpt": "Beagle dogs (body weight of 8 kg-10 kg, supplier: Suzhou Xishan Zhongke Experimental Animal Co., Ltd. and Chengdu Dossy Experimental Animal Co., Ltd., license numbers: SCXK(Su)2018-0001 and SCXK(1)2019-031)\nas §1, §2\nas §3, with “9:” for “3:”, “administration.” for “administration. The blood sample was placed in an EDTA-K2 anticoagulant tube, centrifuged at 4500 r/min for 10 min, and 50 μL of plasma was separated into a centrifuge tube.”"}, "[3]": {"assay": "Experimental Example 2: pharmacokinetic experiment, nalmefene in plasma by LC-MS/MS", "excerpt": "Beagle dogs (body weight of 12 kg-15 kg, supplier: Suzhou Xishan Zhongke Experimental Animal Co., Ltd., license number: SCXK(Su)2018-0001)\n• EDTA-K2 anticoagulant tube: brand Kangweishi (KWS) • Liquid chromatograph (Shimadzu, LC-30AD), mass spectrometer (SCIEX Triple Quad 4500) • LC-MS/MS detection conditions: • Instrument: UPLC-MS/MS (AB API 4500) • MS conditions: Electrospray ionization (ESI) source, positive ion detection […]\nas §3, with “1:” for “3:”, “administration.” for “administration. The blood sample was placed in an EDTA-K2 anticoagulant tube, centrifuged at 4500 r/min for 10 min, and 50 μL of plasma was separated into a centrifuge tube.”\nExperimental method of intramuscular injection for Comparative Example 2: Four beagle dogs were administered 1 dose of an injection of nalmefene hydrochloride (1.5 ml: 1.5 mg) intramuscularly respectively, and 2 mL of blood was collected from the forelimb vein before administration and at 2 min, 5 min, 10 min, 15 min, 30 min, 45 min, 1 h, 2 h, 4 h and 6 h after administration. […] The content of nalmefene in the plasma was detected by LC-MS/MS."}}}
{"compound": "CCCCCCCCCCCCOP(=O)([O-])OCC[N+](C)(C)C", "note": "[dodecylphosphocholine, Dodecylphosphocholine]", "values": [{"measurement": "effect to accelerate the absorption of nalmefene hydrochloride in the nasal cavity compared with n-dodecyl-β-D-maltoside", "setting": "[1]", "value": "superior"}, {"measurement": "effect to accelerate the absorption of nalmefene hydrochloride in the nasal cavity compared with n-dodecyl-β-D-maltoside", "setting": "[2]", "value": "superior"}, {"measurement": "absorption of nalmefene hydrochloride in the nasal cavity, compared with not using dodecylphosphocholine", "setting": "[3]", "value": "significantly accelerate"}]}
